“And” between values parts separate entries of the source, which are not always exact repeats. Equal values may be shown once.
Experiments:
lptA-lacZ expression = experiment: β-galactosidase assay, lptA-lacZ fusion (negative control gene); conditions: WT-lptA-lacZ
FA19-rpoH-lacZ = experiment: Gonococcal growth in liquid culture (GC broth) with hormones (Fig S7)

For `C[C@]12CC[C@@H]3c4ccc(O)cc4CC[C@H]3[C@@H]1CC[C@@H]2O` [β-Estradiol, β-estradiol], the “Mean Miller units” value (lptA-lacZ expression; 0.1 µM hormone) was 4.54 Miller units, the “Mean Miller units” value (lptA-lacZ expression; 1 µM hormone) was 7 Miller units and the “Mean Miller units” value (lptA-lacZ expression; 10 µM hormone) was 4.45 Miller units. For the same compound, the “Mean Miller units” value (lptA-lacZ expression; 50 µM hormone) was 6.62 Miller units, the “Mean Miller units” value (lptA-lacZ expression; 100 µM hormone) was 6 Miller units and the “growth curve reading after BLANKING” value (FA19-rpoH-lacZ; 0 hr, 0.1 µM) was 0.013. The “growth curve reading, raw replicates” value (FA19-rpoH-lacZ; 0 hr, 0.1 µM) was 0.046, the “growth curve reading after BLANKING” value (FA19-rpoH-lacZ; 0 hr, 1 µM) was 0.013 and the “growth curve reading, raw replicates” value (FA19-rpoH-lacZ; 0 hr, 1 µM) was 0.046. The “growth curve reading after BLANKING” value (FA19-rpoH-lacZ; 0 hr, 10 µM) was 0.013, the “growth curve reading, raw replicates” value (FA19-rpoH-lacZ; 0 hr, 10 µM) was 0.046 and the “growth curve reading after BLANKING” value (FA19-rpoH-lacZ; 0 hr, 25 µM) was 0.013. The “growth curve reading, raw replicates” value (FA19-rpoH-lacZ; 0 hr, 25 µM) was 0.046, the “growth curve reading after BLANKING” value (FA19-rpoH-lacZ; 0 hr, 50 µM) was 0.013 and the “growth curve reading, raw replicates” value (FA19-rpoH-lacZ; 0 hr, 50 µM) was 0.046. The “growth curve reading after BLANKING” value (FA19-rpoH-lacZ; 1.18 hr, 0.1 µM) was 0.020, the “growth curve reading, raw replicates” value (FA19-rpoH-lacZ; 1.18 hr, 0.1 µM) was 0.052 and 0.053 and the “growth curve reading after BLANKING” value (FA19-rpoH-lacZ; 1.18 hr, 1 µM) was 0.020. The “growth curve reading, raw replicates” value (FA19-rpoH-lacZ; 1.18 hr, 1 µM) was 0.054 and 0.052, the “growth curve reading after BLANKING” value (FA19-rpoH-lacZ; 1.18 hr, 10 µM) was 0.020 and the “growth curve reading, raw replicates” value (FA19-rpoH-lacZ; 1.18 hr, 10 µM) was 0.053 and 0.054. The “growth curve reading after BLANKING” value (FA19-rpoH-lacZ; 1.18 hr, 25 µM) was 0.021, the “growth curve reading, raw replicates” value (FA19-rpoH-lacZ; 1.18 hr, 25 µM) was 0.053 and 0.056 and the “growth curve reading after BLANKING” value (FA19-rpoH-lacZ; 1.18 hr, 50 µM) was 0.019. For the same compound, the “growth curve reading, raw replicates” value (FA19-rpoH-lacZ; 1.18 hr, 50 µM) was 0.052 and 0.053, the “growth curve reading after BLANKING” value (FA19-rpoH-lacZ; 2 hr, 0.1 µM) was 0.030 and the “growth curve reading, raw replicates” value (FA19-rpoH-lacZ; 2 hr, 0.1 µM) was 0.062 and 0.065. For the same compound, the “growth curve reading after BLANKING” value (FA19-rpoH-lacZ; 2 hr, 1 µM) was 0.030, the “growth curve reading, raw replicates” value (FA19-rpoH-lacZ; 2 hr, 1 µM) was 0.063 and the “growth curve reading after BLANKING” value (FA19-rpoH-lacZ; 2 hr, 10 µM) was 0.031. For the same compound, the “growth curve reading, raw replicates” value (FA19-rpoH-lacZ; 2 hr, 10 µM) was 0.063 and 0.065, the “growth curve reading after BLANKING” value (FA19-rpoH-lacZ; 2 hr, 25 µM) was 0.030 and the “growth curve reading, raw replicates” value (FA19-rpoH-lacZ; 2 hr, 25 µM) was 0.062 and 0.064. The “growth curve reading after BLANKING” value (FA19-rpoH-lacZ; 2 hr, 50 µM) was 0.030, the “growth curve reading, raw replicates” value (FA19-rpoH-lacZ; 2 hr, 50 µM) was 0.063 and the “growth curve reading after BLANKING” value (FA19-rpoH-lacZ; 3 hr, 0.1 µM) was 0.041. For the same compound, the “growth curve reading, raw replicates” value (FA19-rpoH-lacZ; 3 hr, 0.1 µM) was 0.076 and 0.072, the “growth curve reading after BLANKING” value (FA19-rpoH-lacZ; 3 hr, 1 µM) was 0.041 and the “growth curve reading, raw replicates” value (FA19-rpoH-lacZ; 3 hr, 1 µM) was 0.074 and 0.073. For the same compound, the “growth curve reading after BLANKING” value (FA19-rpoH-lacZ; 3 hr, 10 µM) was 0.043, the “growth curve reading, raw replicates” value (FA19-rpoH-lacZ; 3 hr, 10 µM) was 0.079 and 0.074 and the “growth curve reading after BLANKING” value (FA19-rpoH-lacZ; 3 hr, 25 µM) was 0.044. The “growth curve reading, raw replicates” value (FA19-rpoH-lacZ; 3 hr, 25 µM) was 0.078 and 0.075, the “growth curve reading after BLANKING” value (FA19-rpoH-lacZ; 3 hr, 50 µM) was 0.040 and the “growth curve reading, raw replicates” value (FA19-rpoH-lacZ; 3 hr, 50 µM) was 0.074 and 0.072. For the same compound, the “growth curve reading after BLANKING” value (FA19-rpoH-lacZ; 4 hr, 0.1 µM) was 0.055, the “growth curve reading, raw replicates” value (FA19-rpoH-lacZ; 4 hr, 0.1 µM) was 0.087 and 0.090 and the “growth curve reading after BLANKING” value (FA19-rpoH-lacZ; 4 hr, 1 µM) was 0.056. For the same compound, the “growth curve reading, raw replicates” value (FA19-rpoH-lacZ; 4 hr, 1 µM) was 0.089 and 0.088, the “growth curve reading after BLANKING” value (FA19-rpoH-lacZ; 4 hr, 10 µM) was 0.057 and the “growth curve reading, raw replicates” value (FA19-rpoH-lacZ; 4 hr, 10 µM) was 0.088 and 0.092. For the same compound, the “growth curve reading after BLANKING” value (FA19-rpoH-lacZ; 4 hr, 25 µM) was 0.060, the “growth curve reading, raw replicates” value (FA19-rpoH-lacZ; 4 hr, 25 µM) was 0.093 and the “growth curve reading after BLANKING” value (FA19-rpoH-lacZ; 4 hr, 50 µM) was 0.052. For the same compound, the “growth curve reading, raw replicates” value (FA19-rpoH-lacZ; 4 hr, 50 µM) was 0.082 and 0.088, the “growth curve reading after BLANKING” value (FA19-rpoH-lacZ; 5 hr, 0.1 µM) was 0.072 and the “growth curve reading, raw replicates” value (FA19-rpoH-lacZ; 5 hr, 0.1 µM) was 0.104 and 0.106. For the same compound, the “growth curve reading after BLANKING” value (FA19-rpoH-lacZ; 5 hr, 1 µM) was 0.072, the “growth curve reading, raw replicates” value (FA19-rpoH-lacZ; 5 hr, 1 µM) was 0.105 and the “growth curve reading after BLANKING” value (FA19-rpoH-lacZ; 5 hr, 10 µM) was 0.071. The “growth curve reading, raw replicates” value (FA19-rpoH-lacZ; 5 hr, 10 µM) was 0.103 and 0.105, the “growth curve reading after BLANKING” value (FA19-rpoH-lacZ; 5 hr, 25 µM) was 0.076 and the “growth curve reading, raw replicates” value (FA19-rpoH-lacZ; 5 hr, 25 µM) was 0.113 and 0.106. The “growth curve reading after BLANKING” value (FA19-rpoH-lacZ; 5 hr, 50 µM) was 0.065, the “growth curve reading, raw replicates” value (FA19-rpoH-lacZ; 5 hr, 50 µM) was 0.094 and 0.103 and the “growth curve reading after BLANKING” value (FA19-rpoH-lacZ; 5.95 hr, 0.1 µM) was 0.090. For the same compound, the “growth curve reading, raw replicates” value (FA19-rpoH-lacZ; 5.95 hr, 0.1 µM) was 0.124 and 0.123, the “growth curve reading after BLANKING” value (FA19-rpoH-lacZ; 5.95 hr, 1 µM) was 0.093 and the “growth curve reading, raw replicates” value (FA19-rpoH-lacZ; 5.95 hr, 1 µM) was 0.126 and 0.125. The “growth curve reading after BLANKING” value (FA19-rpoH-lacZ; 5.95 hr, 10 µM) was 0.086, the “growth curve reading, raw replicates” value (FA19-rpoH-lacZ; 5.95 hr, 10 µM) was 0.118 and 0.119 and the “growth curve reading, raw replicates” value (FA19-rpoH-lacZ; 5.95 hr, 25 µM) was 0.134 and 0.124.
